The text below walks through data of patent US11591331B2, “PARP1 inhibitors and uses thereof” (Xinthera, Inc., priority 2021, dated 2023).

Molecules are shown by their SMILES. pEC50: −log10 of the molar value.

One experiment has as its system DLD-1 BRCA2(−/−). Nature of the experiment: Cell growth inhibition assay (CellTiter-Glo cell viability, 7 days). To be noted: Homo sapiens, 168 h, DLD-1 BRCA2(-/-) cells. Type of experiment: cell-based.
The test system of experiment [1] is MDA-MB-436 (mutated BRCA1) cell lines. The experiment is described as above. Type of experiment: cell-based. To be noted: Homo sapiens, 168 h, MDA-MB-436 cells.

With `CNC(=O)c1ccc(N2CCN([C@@H](C)c3cnc4cc(C)c(=O)[nH]c4c3)CC2)cn1` (single isomer, unassigned) [Example 124], the pEC50 was 8.12 in the experiment with DLD-1 BRCA2(−/−) and 7.77 in experiment [1].
For `CCc1cc2ccc(CN3CCN(c4ccc(C(=O)NC)c(=O)n4C)CC3)cc2[nH]c1=O` [Example 89], in that order: 8.46 and 8.60.
For `CNC(=O)c1ccc(N2CCN(Cc3cnc4c(Cl)c(Br)c(=O)[nH]c4c3)CC2)cn1` [Example 159] the same measures were 8.77 and 9.14.
For `[2H]C([2H])([2H])NC(=O)c1ccc(N2CCN(C([2H])([2H])c3cnc4cc(C5CC5)c(=O)[nH]c4c3)CC2)cn1` [Example 116] the same measures were 8.70 and 8.92.
For `CCc1cc2ncc(CN3CCN(c4ccc(C(=O)NC5CC5)nc4)[C@@H]4C[C@@H]43)cc2[nH]c1=O` (single isomer, unassigned) [Example 111], the pEC50 was 8.34 in the experiment on DLD-1 BRCA2(−/−) and 8.74 in experiment [1].
For `CNC(=O)c1ccc(N2CCN(Cc3cnc4cc(C5CCC5)c(=O)[nH]c4c3)CC2)cn1` [Example 104] the same measures were 8.85 and 8.85.
Take `CCc1cc2ncc(CN3CCN(c4ccc(NC(=O)OC5COC5)nc4)CC3)cc2[nH]c1=O` [Example 102]: the negative-log EC50 (pEC50) with DLD-1 BRCA2(−/−) was 7.89; in experiment [1], 7.74.
For `CNC(=O)c1ccc(N2CCN(Cc3cnc4cc(C)c(=O)[nH]c4c3)C[C@H]2C)c(C#N)n1` [Example 66], in that order: 8.39 and 8.77.
For `O=C(NC1CC1)c1ccc(N2CCN(Cc3cnc4cc(C5CC5)c(=O)[nH]c4c3)[C@H]3C[C@H]32)cn1` (single isomer, unassigned) [Example 112] the same measures were 8.11 and 8.48.
Take `CCc1cc2ncc(CN3CCN(c4ccc(C(=O)NC[C@@H]5CCOC5)nc4)CC3)cc2[nH]c1=O` [Example 40]: the values for the pEC50 (with DLD-1 BRCA2(−/−); in experiment [1]) were 8.17 and 8.36, respectively.
On to `O=C(NC1CC1)c1ccc(N2CCN(Cc3cnc4c(c3)[nH]c(=O)c3ccoc34)CC2)cn1` [Example 142], for which the pEC50 was 8.06 in the experiment on DLD-1 BRCA2(−/−) and 8.40 in experiment [1].
For `Cc1cc2ncc(CN3CCN(c4ccc(C(=O)NC5COC5)c(F)c4)CC3)cc2[nH]c1=O` [Example 80], in that order: 7.43 and 8.01.
For `CNC(=O)c1ccc(N2CCN(Cc3cnc4c(C)c(Cl)c(=O)[nH]c4c3)CC2)c(F)n1` [Example 156] the same measures were 9.17 and 9.41.
For `CCc1cc2ncc(CN3CCN(c4ccc(C(=O)NC)c(=O)n4C)[C@@H]4C[C@@H]43)cc2[nH]c1=O` (single isomer, unassigned) [Example 114], in that order: 7.96 and 8.29.
In the case of `Cc1c(Cl)c(=O)[nH]c2cc(CN3CCN(c4ccc(C(=O)NC5CC5)nc4)CC3)cnc12` [Example 154], the pEC50 in the experiment with DLD-1 BRCA2(−/−) is 8.52; in experiment [1], 8.80.
For `CCc1cc2ncc(CN3CCN(c4ccccc4C#N)CC3)cc2[nH]c1=O` [Example 130] the same measures were 8.48 and 8.64.
For `CCc1cc2ccc(CN3CCN(c4ccc(C(=O)NC)nc4F)CC3)nc2[nH]c1=O` [Example 150], in that order: 7.74 and 8.05.
For `CCc1cc2ncc(CN3CCN(c4ccc(C(=O)NC5CC5)nc4C#N)CC3)cc2[nH]c1=O` [Example 139] the same measures were 8.82 and 9.11.
`CCc1cc2ncc(CN3CCN(c4ccc(C(=O)NC5COC5)nc4)[C@H](C)C3)cc2[nH]c1=O` [Example 79]: the pEC50 in the experiment with DLD-1 BRCA2(−/−) is 8.02; in experiment [1], 8.43.
For the compound `[2H]C([2H])([2H])NC(=O)c1ccc(N2CCN(Cc3ccc4c5c(c(=O)[nH]c4c3)CCO5)CC2)cn1` [Example 73], the pEC50 in the experiment with DLD-1 BRCA2(−/−) was 8.38; in experiment [1], 8.66.
For `CCc1cc2ncc(CN3CCN(c4ccc(C(=O)NC)c(=O)n4C)CC3)cc2[nH]c1=O` [Example 65], in that order: 7.89 and 8.51.
`[2H]C([2H])([2H])NC(=O)c1ccc(N2CCN(Cc3cnc4cc(C5CC5)c(=O)[nH]c4c3)[C@H]3C[C@H]32)cn1` (single isomer, unassigned) [Example 107]: the pEC50 is 8.04 with DLD-1 BRCA2(−/−) and 8.60 in experiment [1].
For `CNC(=O)c1ccc(N2CCN(Cc3cnc4cc(C)c(=O)[nH]c4c3)[C@H]3C[C@H]32)c(C#N)n1` (single isomer, unassigned) [Example 98] the same measures were 8.70 and 8.92.
For `[2H]C([2H])([2H])NC(=O)c1ccc(N2CCN(Cc3cnc4cc(CC)c(=O)[nH]c4c3)[C@H]3C[C@H]32)cn1` (racemic) [Example 90] the same measures were 8.19 and 8.37.
As to `O=C(NC1CC1)c1ccc(N2CCN(Cc3cnc4cc(Cl)c(=O)[nH]c4c3)CC2)cn1` [Example 147], the pEC50 was 8.54 with DLD-1 BRCA2(−/−) and 8.89 in experiment [1].
For `[2H]C([2H])(c1cnc2cc(C3CC3)c(=O)[nH]c2c1)N1CCN(c2ccc(C(=O)NC)nc2)CC1` [Example 115] the same measures were 8.72 and 8.89.
For `CCc1cc2ncc(CN3CCN(c4ccccn4)CC3)cc2[nH]c1=O` [Example 82, 3-ethyl-7-{[4-(pyridin-2-yl)piperazin-1-yl]methyl}-1H-1,5-naphthyridin-2-one] the same measures were 8.00 and 8.11.
For `CCc1cc2ncc(CN3CCN(c4ccc(-c5ncc[nH]5)nc4)CC3)cc2[nH]c1=O` [Example 19, 3-ethyl-7-({4-[6-(1H-imidazol-2-yl)pyridin-3-yl]piperazin-1-yl}methyl)-1H-1,5-naphthyridin-2-one], in that order: 8.43 and 8.74.
Consider `[2H]C([2H])(c1cnc2cc(C3CC3)c(=O)[nH]c2c1)N1CCN(c2ccc(C(=O)NC3CC3)nc2)CC1` [Example 117], for which the pEC50 is 8.68 in the experiment with DLD-1 BRCA2(−/−) and 8.92 in experiment [1].
For `CCc1cc2ncc(CN3CCN(c4cc(F)ccc4C#N)CC3)cc2[nH]c1=O` [Example 132], in that order: 8.17 and 8.36.
For `CCc1cc2ncc(CN3CCN(c4cc(F)c(C(=O)NC)cn4)CC3)cc2[nH]c1=O` [Example 51], in that order: 7.77 and 8.19.
For `[2H]C([2H])([2H])NC(=O)c1ccc(N2CCN(Cc3cnc4cc(CC)c(=O)[nH]c4c3)[C@@H]3C[C@@H]32)cn1` (single isomer, unassigned) [Example 96], in that order: 8.54 and 8.77.
Consider `CNC(=O)c1ccc(N2CCN(Cc3cnc4cc(C5CC5)c(=O)[nH]c4c3)CC2)c(C#N)n1` [Example 97], for which the figures for the pEC50 (in the experiment on DLD-1 BRCA2(−/−); in experiment [1]) were 8.82 and 9.15, respectively.
Consider `CCc1cc2ncc(CN3CCN(c4ccc(C(=O)N[C@H]5C[C@@](C)(O)C5)nc4)CC3)cc2[nH]c1=O` [Example 45], for which the pEC50 in the experiment with DLD-1 BRCA2(−/−) was 7.80; in experiment [1], 8.37.
For `CCc1cc2ncc(CN3CCN(c4ccc(C(=O)NCCOC)nc4)CC3)cc2[nH]c1=O` [Example 42] the same measures were 8.48 and 8.39.
For `CCc1cc2ncc(CN3CCN(c4ccc(C(=O)NCC(C)(C)O)nc4)CC3)cc2[nH]c1=O` [Example 52], in that order: 7.92 and 8.40.
For `CNC(=O)c1ccc2c(n1)OC[C@@H]1CN(Cc3cnc4cc(C5CC5)c(=O)[nH]c4c3)CCN21` [Example 78], in that order: 8.55 and 8.74.
On to `CNC(=O)c1ccc(C2=CCN(Cc3cnc4cc(Cl)c(=O)[nH]c4c3)CC2)c(F)n1` [Example 153], for which the pEC50 is 9.02 with DLD-1 BRCA2(−/−) and 9.13 in experiment [1].
Take `CCc1cc2c(OC)nc(CN3CCN(c4ccc(C(=O)NC)nc4)CC3)cc2[nH]c1=O` [Example 144]: the pEC50 with DLD-1 BRCA2(−/−) was 8.39; in experiment [1] it was 8.70.
Regarding `[2H]C([2H])([2H])NC(=O)c1ccc(N2CCN(Cc3cnc4cc(CC)c(=O)[nH]c4c3)C[C@H]2C)c(C#N)n1` [Example 93], the pEC50 in the experiment on DLD-1 BRCA2(−/−) is 8.77; in experiment [1], 9.08.
For `CCc1cc2ncc(CN3CCN(c4ccc(C(=O)NC[C@@H](C)OC)nc4)CC3)cc2[nH]c1=O` [Example 60] the same measures were 7.85 and 8.30.
Turning to `Cc1cc2ncc(CN3CCN(c4cccnc4C#N)CC3)cc2[nH]c1=O` [Example 131], the pEC50 in the experiment with DLD-1 BRCA2(−/−) was 7.96; in experiment [1], 8.21.
For the compound `CCc1cc2ncc(CN3CCN(c4ccc(C(=O)NC5COC5)nc4)[C@@H]4C[C@@H]43)cc2[nH]c1=O` (single isomer, unassigned) [Example 88], the values for the pEC50 (with DLD-1 BRCA2(−/−); in experiment [1]) were 8.38 and 8.42, respectively.
As to `CCc1cc2ncc(CN3CCC(c4cnc(C(=O)NC)c(F)c4)CC3)cc2[nH]c1=O` [Example 23, 5-{1-[(7-ethyl-6-oxo-5H-1,5-naphthyridin-3-yl)methyl]piperidin-4-yl}-3-fluoro-N-methylpyridine-2-carboxamide], the pEC50 with DLD-1 BRCA2(−/−) is 8.22; in experiment [1] it was 8.66.
For `CCc1cc2ncc(CN3CCN(c4ccc(C(=O)N[C@H]5CCOC5)nc4)CC3)cc2[nH]c1=O` [Example 47] the same measures were 8.11 and 8.48.
For `CCc1cc2ncc(CN3CCN(c4ccc(C(=O)NC5CC5)c(F)c4)CC3)cc2[nH]c1=O` [Example 134] the same measures were 8.62 and 8.85.
For `CNC(=O)c1ccc(N2CCN(Cc3cnc4c(c3)[nH]c(=O)c3ccoc34)[C@@H]3C[C@@H]32)cn1` (single isomer, unassigned) [Example 85], in that order: 7.85 and 7.89.
With `O=C(NC1CC1)c1ccc(N2CCN(Cc3cnc4cc(C5CC5)c(=O)[nH]c4c3)CC2)c(F)n1` [Example 158], the pEC50 in the experiment with DLD-1 BRCA2(−/−) was 8.68; in experiment [1], 9.00.
Consider `CCc1cc2ncc(CN3CCN(c4ccc(NC(=O)C5CC5)nc4)CC3)cc2[nH]c1=O` [Example 75], for which the pEC50 was 8.59 in the experiment with DLD-1 BRCA2(−/−) and 8.82 in experiment [1].
